A value given as a limit tells only on which side of the number the result lay.

The values that follow come from US20240360179A1, “STAPLED PEPTIDES AND METHODS THEREOF” (FOG PHARMACEUTICALS, INC., priority 2021, published 2024).

Test [1] concerns AXIN2 transcripts in COLO320DM cells. Nature of the test: qPCR of AXIN2 transcripts in COLO320DM cells. The class given is cell-based, human.
Source text: RT-qPCR. […] Relative gene expression levels were monitored using the Taqman Gene Expression probes for AXIN2 (Hs00610344 m1, ThermoFisher), SP5 (Hs01370227-mH, ThermoFisher), RNF43 (Hs00214886-m1, ThermoFisher), NOTUM (Hs00991061-m1, ThermoFisher), CXCL12 (Hs03676656-mH, ThermoFisher).
Test [2] deals with T1, full-length B-Catenin (Uniprot ID P35222) (Homo sapiens, UniProt P35222).
T1 construct: 10 nM full-length B-Catenin (Uniprot ID P35222)
T1 sequence (P35222 1-781): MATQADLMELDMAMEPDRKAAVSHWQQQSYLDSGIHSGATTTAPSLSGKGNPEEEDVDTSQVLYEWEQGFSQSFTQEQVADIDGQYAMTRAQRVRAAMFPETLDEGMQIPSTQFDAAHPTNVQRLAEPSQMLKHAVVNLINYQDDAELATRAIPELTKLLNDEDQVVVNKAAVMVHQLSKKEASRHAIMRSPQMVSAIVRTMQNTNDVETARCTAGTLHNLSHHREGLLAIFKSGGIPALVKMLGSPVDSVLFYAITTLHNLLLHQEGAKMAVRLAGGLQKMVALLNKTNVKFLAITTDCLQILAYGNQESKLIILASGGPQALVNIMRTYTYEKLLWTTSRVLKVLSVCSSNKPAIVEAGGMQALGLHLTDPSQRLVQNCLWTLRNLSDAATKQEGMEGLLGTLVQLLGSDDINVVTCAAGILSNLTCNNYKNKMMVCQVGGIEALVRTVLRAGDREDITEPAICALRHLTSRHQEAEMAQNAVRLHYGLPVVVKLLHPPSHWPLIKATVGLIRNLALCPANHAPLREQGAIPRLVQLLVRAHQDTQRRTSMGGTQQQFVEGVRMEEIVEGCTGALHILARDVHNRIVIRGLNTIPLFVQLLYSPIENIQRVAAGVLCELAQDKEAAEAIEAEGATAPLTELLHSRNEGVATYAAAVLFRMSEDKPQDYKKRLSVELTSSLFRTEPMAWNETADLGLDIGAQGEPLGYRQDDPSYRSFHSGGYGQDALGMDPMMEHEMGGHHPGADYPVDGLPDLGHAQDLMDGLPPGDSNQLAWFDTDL
In kind it is binding. As to conditions: read-out: Competition Fluorescence Polarization IC50. Background: In fluorescence polarisation assays a small probe gives low polarisation when free and higher when bound to something large.

Test [3] deals with T2, TCF/LEF luciferase reporter in DLD1 cells (Homo sapiens, UniProt P35222).
T2 sequence (P35222 2-781): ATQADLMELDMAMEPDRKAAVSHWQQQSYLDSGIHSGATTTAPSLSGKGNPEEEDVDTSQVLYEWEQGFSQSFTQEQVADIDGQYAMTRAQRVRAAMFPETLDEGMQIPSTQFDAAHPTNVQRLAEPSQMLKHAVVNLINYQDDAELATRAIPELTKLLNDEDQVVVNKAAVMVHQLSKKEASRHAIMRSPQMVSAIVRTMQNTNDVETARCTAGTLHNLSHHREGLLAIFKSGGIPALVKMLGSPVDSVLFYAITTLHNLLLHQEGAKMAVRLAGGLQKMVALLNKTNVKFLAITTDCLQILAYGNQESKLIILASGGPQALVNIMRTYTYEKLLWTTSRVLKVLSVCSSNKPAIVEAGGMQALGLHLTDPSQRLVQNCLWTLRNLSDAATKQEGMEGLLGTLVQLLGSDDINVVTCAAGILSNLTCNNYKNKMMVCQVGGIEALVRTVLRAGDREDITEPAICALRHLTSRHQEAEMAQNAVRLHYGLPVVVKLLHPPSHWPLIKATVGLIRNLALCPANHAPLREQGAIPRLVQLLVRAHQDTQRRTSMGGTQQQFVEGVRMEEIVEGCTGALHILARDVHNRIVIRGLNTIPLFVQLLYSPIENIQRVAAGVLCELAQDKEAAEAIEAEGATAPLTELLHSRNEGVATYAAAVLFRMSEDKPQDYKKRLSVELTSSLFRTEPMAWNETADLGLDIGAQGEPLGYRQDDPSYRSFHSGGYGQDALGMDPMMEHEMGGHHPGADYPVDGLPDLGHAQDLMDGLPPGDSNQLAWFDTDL
Nature of the test: TCF reporter assay in DLD1 cells (4% or 20% FBS). In kind it is cell-based. As to conditions: DLD1 reporter cells; read-out: TCF reporter IC50. On the technique in general: A reporter such as luciferase makes a cellular process visible.

Test [4] has as its target T3, biotinylated B-Catenin residues 134-665 (Uniprot ID P35222) (Homo sapiens, UniProt P35222).
T3 construct: biotinylated B-Catenin residues 134-665 (Uniprot ID P35222)
T3 sequence (P35222 134-665): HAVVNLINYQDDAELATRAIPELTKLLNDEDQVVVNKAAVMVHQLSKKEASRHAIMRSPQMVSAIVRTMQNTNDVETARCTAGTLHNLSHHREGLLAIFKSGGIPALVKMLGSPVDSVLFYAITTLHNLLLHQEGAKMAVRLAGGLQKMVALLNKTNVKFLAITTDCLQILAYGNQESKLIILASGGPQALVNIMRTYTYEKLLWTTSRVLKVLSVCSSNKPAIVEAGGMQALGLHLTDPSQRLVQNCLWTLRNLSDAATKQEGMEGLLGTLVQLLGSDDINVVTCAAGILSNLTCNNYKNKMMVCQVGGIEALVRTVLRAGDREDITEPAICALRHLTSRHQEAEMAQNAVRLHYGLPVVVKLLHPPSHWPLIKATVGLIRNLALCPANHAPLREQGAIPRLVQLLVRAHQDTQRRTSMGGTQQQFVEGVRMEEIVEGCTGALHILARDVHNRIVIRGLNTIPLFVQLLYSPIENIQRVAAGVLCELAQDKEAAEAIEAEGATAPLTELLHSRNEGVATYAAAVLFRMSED
Put plainly: Surface plasmon resonance (Biacore) binding to beta-catenin. As to conditions: read-out: SPR Kd. (In general: SPR reads the build-up and loss of mass on a sensor chip optically.)
Procedure: In some embodiments, binding to beta-catenin may be measured by surface plasmon resonance (SPR).
Peptides at 10 mM concentration in DMSO are diluted into Biacore™ running buffer (50 mM Tris pH 8.0, 300 mM NaCl, 2% glycerol, 0.5 mM TCEP, 0.5 mM EDTA, 0.005% Tween-20, 0.09% DMSO) to afford an appropriate dilution range. […] Results were analyzed using the Biacore™ Insight Evaluation Software, fitting to a 1:1 binding model.
SPR. In some embodiments, SPR may be utilized for characterizing or assessing interactions, bindings, etc. The following protocol is described as an example. In some embodiments, SPR experiments were performed on a Biacore™ 8K (Cytiva, Marlborough, MA) instrument at 25° C. Compounds were diluted into running buffer (50 mM Tris pH 8.0, 300 mM NaCl, 2% glycerol, 0.5 mM TCEP, 0.5 mM EDTA, 0.005% Tween-20, 1% DMSO). […] Results were analyzed using the Biacore™ Insight Evaluation software, with double referencing and fitted to a 1:1 binding affinity model.

On to “Ac-PL3-Glu-Npg-B5-Glu-3COOHF-Aib-Ala-Phe-Lys*3-PyrS2-3Thi-BztA-GlnR*3-Ala-NH2 [I-470]”, for which, in test [1] (COLO320DM cells), the “effect on AXIN2 expression level” value is “no or very little or non-significant effect”. The IC50 (as a rule, the concentration at which inhibition is half-maximal) is > 20 µM in test [1] (Reduction of AXIN2 transcripts in COLO320DM cells), 7.5 µM in test [2] and > 20 µM in test [3]. Moreover, in test [4], the Kd – broadly, a measure of binding affinity in units of concentration – was > 5 µM.
